# Results taken from PubChem BioAssay (NCI).
#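 Growth conditions: 96-well plates. Treatment: test compound, 48 hours, 5 concentrations. Analysis: linear interpolation between bracketing concentrations; unreached endpoints set to highest concentration. TGI marks complete inhibition of growth.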
# Legend:
# Test in all cases: inhibition of tumour cell growth, NCI panel, 48 h
# SF-295 CNS = system: SF-295 CNS
# MOLT-4 leukemia = system: MOLT-4 leukemia
# M14 melanoma = system: M14 melanoma
# ACHN renal = system: ACHN renal
# SNB-19 CNS = system: SNB-19 CNS
# HCC-2998 colon = system: HCC-2998 colon
# HCT-116 colon = system: HCT-116 colon
# OVCAR-8 ovarian = system: OVCAR-8 ovarian
# COLO 205 colon = system: COLO 205 colon
# OVCAR-3 ovarian = system: OVCAR-3 ovarian
# RXF 393 renal = system: RXF 393 renal
# UO-31 renal = system: UO-31 renal
# SK-MEL-5 melanoma = system: SK-MEL-5 melanoma
# HOP-92 NSCLC = system: HOP-92 NSCLC
# NCI/ADR-RES ovarian = system: NCI/ADR-RES ovarian
# UACC-257 melanoma = system: UACC-257 melanoma
# NCI-H460 lung = system: NCI-H460 lung
# BT-549 breast = system: BT-549 breast
# A549 NSCLC = system: A549 NSCLC
# DU-145 prostate = system: DU-145 prostate
# IGROV1 ovarian = system: IGROV1 ovarian
# CCRF-CEM leukemia = system: CCRF-CEM leukemia
# TK-10 renal = system: TK-10 renal
# HS 578T breast = system: HS 578T breast
# SK-MEL-28 melanoma = system: SK-MEL-28 melanoma
# SW-620 colon = system: SW-620 colon
# HOP-62 NSCLC = system: HOP-62 NSCLC
# OVCAR-5 ovarian = system: OVCAR-5 ovarian
# MCF7 breast = system: MCF7 breast
# SK-MEL-2 melanoma = system: SK-MEL-2 melanoma
# 786-0 renal = system: 786-0 renal
# NCI-H522 lung = system: NCI-H522 lung
# MDA-MB-435 = system: MDA-MB-435
# NCI-H226 lung = system: NCI-H226 lung
# SF-539 CNS = system: SF-539 CNS
# HCT-15 colon = system: HCT-15 colon
# RPMI-8226 leukemia = system: RPMI-8226 leukemia
# NCI-H23 lung = system: NCI-H23 lung
# MALME-3M melanoma = system: MALME-3M melanoma
# MDA-MB-231 breast = system: MDA-MB-231 breast
# SNB-75 CNS = system: SNB-75 CNS
# HT29 colon = system: HT29 colon
# U251 CNS = system: U251 CNS
# A498 renal = system: A498 renal
# CAKI-1 renal = system: CAKI-1 renal
# MDA-N = system: MDA-N
# EKVX NSCLC = system: EKVX NSCLC
# K-562 leukemia = system: K-562 leukemia
# LOX IMVI melanoma = system: LOX IMVI melanoma
# SN12C renal = system: SN12C renal
# SR leukemia = system: SR leukemia
# UACC-62 melanoma = system: UACC-62 melanoma
# SF-268 CNS = system: SF-268 CNS
# OVCAR-4 ovarian = system: OVCAR-4 ovarian
# KM12 colon = system: KM12 colon
# PC-3 prostate = system: PC-3 prostate
# SK-OV-3 ovarian = system: SK-OV-3 ovarian
smiles,measurement,setting,value
O=C1C=CC2(C=C1)CCC(=O)O2,TGI,SF-295 CNS,46.4 µM
same,TGI,MOLT-4 leukemia,> 100 µM
same,TGI,M14 melanoma,> 100 µM
same,TGI,ACHN renal,34.2 µM
same,TGI,SNB-19 CNS,37.4 µM
same,TGI,HCC-2998 colon,27.2 µM
same,TGI,HCT-116 colon,28 µM
same,TGI,OVCAR-8 ovarian,> 100 µM
same,TGI,COLO 205 colon,23.1 µM
same,TGI,OVCAR-3 ovarian,28.9 µM
same,TGI,RXF 393 renal,28.3 µM
same,TGI,UO-31 renal,31.2 µM
same,TGI,SK-MEL-5 melanoma,29.8 µM
same,TGI,HOP-92 NSCLC,26.6 µM
same,TGI,NCI/ADR-RES ovarian,> 100 µM
same,TGI,UACC-257 melanoma,80.2 µM
same,TGI,NCI-H460 lung,30.7 µM
same,TGI,BT-549 breast,46.3 µM
same,TGI,A549 NSCLC,44.1 µM
same,TGI,DU-145 prostate,31.5 µM
same,TGI,IGROV1 ovarian,28.5 µM
same,TGI,CCRF-CEM leukemia,25.3 µM
same,TGI,TK-10 renal,24.2 µM
same,TGI,HS 578T breast,> 100 µM
same,TGI,SK-MEL-28 melanoma,> 100 µM
same,TGI,SW-620 colon,37.5 µM
same,TGI,HOP-62 NSCLC,38.2 µM
same,TGI,OVCAR-5 ovarian,46 µM
same,TGI,MCF7 breast,34.5 µM
same,TGI,SK-MEL-2 melanoma,36.6 µM
same,TGI,786-0 renal,31 µM
same,TGI,NCI-H522 lung,5.4 µM
same,TGI,MDA-MB-435,29.6 µM
same,TGI,NCI-H226 lung,> 100 µM
same,TGI,SF-539 CNS,76.8 µM
same,TGI,HCT-15 colon,54.3 µM
same,TGI,RPMI-8226 leukemia,23.7 µM
same,TGI,NCI-H23 lung,43.9 µM
same,TGI,MALME-3M melanoma,19.6 µM
same,TGI,MDA-MB-231 breast,23.9 µM
same,TGI,SNB-75 CNS,39.1 µM
same,TGI,HT29 colon,> 100 µM
same,TGI,U251 CNS,23.1 µM
same,TGI,A498 renal,> 100 µM
same,TGI,CAKI-1 renal,18.2 µM
same,TGI,MDA-N,> 100 µM
same,TGI,EKVX NSCLC,43.8 µM
same,TGI,K-562 leukemia,> 100 µM
same,TGI,LOX IMVI melanoma,20.9 µM
same,TGI,SN12C renal,34.5 µM
same,TGI,SR leukemia,> 100 µM
same,TGI,UACC-62 melanoma,37.4 µM
same,TGI,SF-268 CNS,51.6 µM
same,TGI,OVCAR-4 ovarian,29.9 µM
same,TGI,KM12 colon,29.9 µM
same,TGI,PC-3 prostate,27.1 µM
COc1c(C)c(OC)c2c(c1O)[C@@H]1[C@@H]3Cc4c(OC)c(C)c(OC)c(O)c4[C@H](CNC(=O)c4ccc5ccccc5n4)N3[C@@H](C#N)[C@H](C2)N1C,TGI,SF-295 CNS,> 0.0214 µM
same,TGI,SK-OV-3 ovarian,> 0.1 µM
same,TGI,MOLT-4 leukemia,0.0144 µM
same,TGI,M14 melanoma,0.00267 µM
same,TGI,ACHN renal,> 0.1 µM
same,TGI,SNB-19 CNS,> 0.1 µM
same,TGI,HCC-2998 colon,0.0007 µM
same,TGI,HCT-116 colon,0.00585 µM
same,TGI,OVCAR-8 ovarian,> 0.1 µM
same,TGI,COLO 205 colon,> 0.1 µM
same,TGI,OVCAR-3 ovarian,0.0023 µM
same,TGI,RXF 393 renal,0.00347 µM
same,TGI,UO-31 renal,0.00879 µM
same,TGI,SK-MEL-5 melanoma,0.00186 µM
same,TGI,HOP-92 NSCLC,0.00322 µM
same,TGI,NCI/ADR-RES ovarian,> 0.052 µM
same,TGI,UACC-257 melanoma,0.00546 µM
same,TGI,NCI-H460 lung,> 0.0901 µM
same,TGI,BT-549 breast,0.00172 µM
same,TGI,DU-145 prostate,> 0.0296 µM
same,TGI,IGROV1 ovarian,0.000858 µM
same,TGI,TK-10 renal,0.0023 µM
same,TGI,HS 578T breast,0.00741 µM
same,TGI,SK-MEL-28 melanoma,0.00592 µM
same,TGI,SW-620 colon,0.00251 µM
same,TGI,HOP-62 NSCLC,0.0104 µM
same,TGI,OVCAR-5 ovarian,0.00353 µM
same,TGI,MCF7 breast,> 0.1 µM
same,TGI,SK-MEL-2 melanoma,0.000832 µM
same,TGI,786-0 renal,0.00791 µM
same,TGI,NCI-H522 lung,0.000444 µM
same,TGI,MDA-MB-435,0.00438 µM
same,TGI,NCI-H226 lung,0.00571 µM
same,TGI,SF-539 CNS,0.00774 µM
same,TGI,HCT-15 colon,> 0.0597 µM
same,TGI,NCI-H23 lung,0.00187 µM
same,TGI,MALME-3M melanoma,0.000743 µM
same,TGI,MDA-MB-231 breast,> 0.0276 µM
same,TGI,SNB-75 CNS,0.0143 µM
same,TGI,HT29 colon,0.00491 µM
same,TGI,U251 CNS,> 0.1 µM
same,TGI,A498 renal,0.00411 µM
same,TGI,CAKI-1 renal,0.0384 µM
same,TGI,MDA-N,0.00283 µM
same,TGI,K-562 leukemia,> 0.1 µM
same,TGI,LOX IMVI melanoma,> 0.1 µM
same,TGI,SN12C renal,> 0.1 µM
same,TGI,SR leukemia,0.000329 µM
same,TGI,UACC-62 melanoma,0.00236 µM
same,TGI,SF-268 CNS,0.0305 µM
same,TGI,OVCAR-4 ovarian,0.00742 µM
same,TGI,KM12 colon,0.00227 µM
same,TGI,PC-3 prostate,> 0.0514 µM
COc1cccc(NC(=O)c2c(SC)c(C#N)c(=O)n(N)c2N)c1,TGI,SF-295 CNS,> 100 µM
same,TGI,SK-OV-3 ovarian,> 100 µM
same,TGI,MOLT-4 leukemia,> 100 µM
same,TGI,M14 melanoma,> 100 µM
same,TGI,ACHN renal,> 100 µM
same,TGI,SNB-19 CNS,98.6 µM
same,TGI,HCC-2998 colon,> 100 µM
same,TGI,HCT-116 colon,> 100 µM
same,TGI,OVCAR-8 ovarian,> 100 µM
same,TGI,COLO 205 colon,> 100 µM
same,TGI,RXF 393 renal,> 100 µM
same,TGI,SK-MEL-5 melanoma,> 100 µM
same,TGI,HOP-92 NSCLC,> 100 µM
same,TGI,NCI/ADR-RES ovarian,> 100 µM
same,TGI,UACC-257 melanoma,> 100 µM
same,TGI,NCI-H460 lung,> 100 µM
same,TGI,BT-549 breast,> 100 µM
same,TGI,A549 NSCLC,> 100 µM
same,TGI,IGROV1 ovarian,> 100 µM
same,TGI,CCRF-CEM leukemia,> 100 µM
same,TGI,TK-10 renal,> 100 µM
same,TGI,HS 578T breast,> 100 µM
same,TGI,SK-MEL-28 melanoma,> 100 µM
same,TGI,SW-620 colon,> 100 µM
same,TGI,HOP-62 NSCLC,> 100 µM
same,TGI,OVCAR-5 ovarian,> 100 µM
same,TGI,MCF7 breast,> 100 µM
same,TGI,SK-MEL-2 melanoma,> 100 µM
same,TGI,786-0 renal,> 100 µM
same,TGI,NCI-H522 lung,> 100 µM
same,TGI,MDA-MB-435,> 100 µM
same,TGI,NCI-H226 lung,> 100 µM
same,TGI,SF-539 CNS,> 100 µM
same,TGI,HCT-15 colon,> 100 µM
same,TGI,MALME-3M melanoma,> 100 µM
same,TGI,MDA-MB-231 breast,> 100 µM
same,TGI,SNB-75 CNS,81.3 µM
same,TGI,HT29 colon,> 100 µM
same,TGI,U251 CNS,> 100 µM
same,TGI,A498 renal,> 100 µM
same,TGI,CAKI-1 renal,> 100 µM
same,TGI,MDA-N,> 100 µM
same,TGI,EKVX NSCLC,> 100 µM
same,TGI,K-562 leukemia,> 100 µM
same,TGI,LOX IMVI melanoma,> 100 µM
same,TGI,SN12C renal,> 100 µM
same,TGI,UACC-62 melanoma,> 100 µM
same,TGI,SF-268 CNS,> 100 µM
same,TGI,OVCAR-4 ovarian,> 100 µM
same,TGI,KM12 colon,> 100 µM
same,TGI,PC-3 prostate,> 100 µM
